Reference: the supplement of paper PMC10307832

How the values were obtained:
Test in all cases: relative viability (nuclei count vs DMSO), 5 days (fraction); higher = more cells survive
[1] = system: NCI-H1395
Method in brief: (§1)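 A single step with final 0.05% Triton X-100, 1% formaldehyde and 1 ug/ml Hoechst fixed the cells and stained nuclei 5 days after treatment. Lung cancer cell lines in 1536-well plates had been treated by pin tool the day after seeding with one drug alone or a fixed anchor-drug dose plus five library-drug doses (not always all listed) in √10 steps, and nuclei were counted on 4× images. Relative viability is the ratio of nuclei in treated wells to nuclei in vehicle wells, taken as the median of duplicate plates.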

[2] = system: NCI-H647
Method in brief: as §1

[3] = system: HCC-366
Method in brief: as §1

[4] = system: LU99A
Method in brief: as §1

[5] = system: CAL-12T
Method in brief: as §1

[6] = system: NCI-H1666
Method in brief: as §1

[7] = system: NCI-H520
Method in brief: as §1

[8] = system: NCI-H522
Method in brief: as §1

[9] = system: PC-3 [JPC-3]
Method in brief: as §1

[10] = system: HARA
Method in brief: as §1

[11] = system: LC-2-ad
Method in brief: as §1

[12] = system: HCC-15
Method in brief: as §1

[13] = system: NCI-H1975
Method in brief: as §1

[14] = system: NCI-H1993
Method in brief: as §1

[15] = system: NCI-H1734
Method in brief: as §1

[16] = system: NCI-H3122
Method in brief: as §1

[17] = system: NCI-H2228
Method in brief: as §1

[18] = system: PC-14
Method in brief: as §1

[19] = system: NCI-H661
Method in brief: as §1

[20] = system: H3255
Method in brief: as §1

[21] = system: NCI-H1944
Method in brief: as §1

[22] = system: SK-LU-1
Method in brief: as §1

[23] = system: COR-L 105
Method in brief: as §1

[24] = system: NCI-H838
Method in brief: as §1

## CCCCCCCCCCCC1=C(O)C(=O)C=C(O)C1=O [Embelin] + CC(=O)Nc1cccc(-n2c(=O)n(C3CC3)c(=O)c3c(Nc4ccc(I)cc4F)n(C)c(=O)c(C)c32)c1 [Trametinib] (partner 0.02 µM)
[1]; first compound 0.08 µM
  relative viability: 0.996
[1]; first compound 0.8 µM
  relative viability: 1.14
[1]; first compound 2.53 µM
  relative viability: 1.14
[1]; first compound 8 µM
  relative viability: 1.14
[2]; first compound 0.08 µM
  relative viability: 0.489
[2]; first compound 0.8 µM
  relative viability: 0.528
[2]; first compound 2.53 µM
  relative viability: 0.638
[2]; first compound 8 µM
  relative viability: 0.446
[3]; first compound 0.08 µM
  relative viability: 0.385
[3]; first compound 0.8 µM
  relative viability: 0.431
[3]; first compound 2.53 µM
  relative viability: 0.446
[3]; first compound 8 µM
  relative viability: 0.326
[4]; first compound 0.08 µM
  relative viability: 0.631
[4]; first compound 0.8 µM
  relative viability: 0.596
[4]; first compound 2.53 µM
  relative viability: 0.561
[4]; first compound 8 µM
  relative viability: 0.526
[5]; first compound 0.08 µM
  relative viability: 0.376
[5]; first compound 0.8 µM
  relative viability: 0.386
[5]; first compound 2.53 µM
  relative viability: 0.283
[5]; first compound 8 µM
  relative viability: 0.295
[6]; first compound 0.08 µM
  relative viability: 0.813
[6]; first compound 0.8 µM
  relative viability: 0.824
[6]; first compound 2.53 µM
  relative viability: 0.838
[6]; first compound 8 µM
  relative viability: 0.91
[7]; first compound 0.08 µM
  relative viability: 0.689
[7]; first compound 0.8 µM
  relative viability: 0.72
[7]; first compound 2.53 µM
  relative viability: 0.95
[7]; first compound 8 µM
  relative viability: 0.705
[8]; first compound 0.08 µM
  relative viability: 0.637
[8]; first compound 0.8 µM
  relative viability: 0.817
[8]; first compound 2.53 µM
  relative viability: 0.719
[8]; first compound 8 µM
  relative viability: 0.765
[9]; first compound 0.08 µM
  relative viability: 0.684
[9]; first compound 0.8 µM
  relative viability: 0.75
[9]; first compound 2.53 µM
  relative viability: 0.788
[9]; first compound 8 µM
  relative viability: 0.614
[10]; first compound 0.08 µM
  relative viability: 0.785
[10]; first compound 0.8 µM
  relative viability: 1.05
[10]; first compound 2.53 µM
  relative viability: 0.637
[10]; first compound 8 µM
  relative viability: 0.536
[11]; first compound 0.08 µM
  relative viability: 0.891
[11]; first compound 0.8 µM
  relative viability: 0.98
[11]; first compound 2.53 µM
  relative viability: 0.966
[11]; first compound 8 µM
  relative viability: 1.02
[12]; first compound 0.08 µM
  relative viability: 0.366
[12]; first compound 0.8 µM
  relative viability: 0.435
[12]; first compound 2.53 µM
  relative viability: 0.345
[12]; first compound 8 µM
  relative viability: 0.383
[13]; first compound 0.08 µM
  relative viability: 0.38
[13]; first compound 0.8 µM
  relative viability: 0.379
[13]; first compound 2.53 µM
  relative viability: 0.376
[13]; first compound 8 µM
  relative viability: 0.369
[14]; first compound 0.08 µM
  relative viability: 0.513
[14]; first compound 0.8 µM
  relative viability: 0.512
[14]; first compound 2.53 µM
  relative viability: 0.584
[14]; first compound 8 µM
  relative viability: 0.498
[15]; first compound 0.08 µM
  relative viability: 0.686
[15]; first compound 0.8 µM
  relative viability: 0.789
[15]; first compound 2.53 µM
  relative viability: 0.777
[15]; first compound 8 µM
  relative viability: 0.689
[16]; first compound 0.08 µM
  relative viability: 0.251
[16]; first compound 0.8 µM
  relative viability: 0.253
[16]; first compound 2.53 µM
  relative viability: 0.238
[16]; first compound 8 µM
  relative viability: 0.263
[17]; first compound 0.08 µM
  relative viability: 0.491
[17]; first compound 0.8 µM
  relative viability: 0.523
[17]; first compound 2.53 µM
  relative viability: 0.609
[17]; first compound 8 µM
  relative viability: 0.455
[18]; first compound 0.08 µM
  relative viability: 0.728
[18]; first compound 0.8 µM
  relative viability: 0.839
[18]; first compound 2.53 µM
  relative viability: 0.982
[18]; first compound 8 µM
  relative viability: 0.724
[19]; first compound 0.08 µM
  relative viability: 0.604
[19]; first compound 0.8 µM
  relative viability: 0.729
[19]; first compound 2.53 µM
  relative viability: 0.657
[19]; first compound 8 µM
  relative viability: 0.521
[20]; first compound 0.08 µM
  relative viability: 0.601
[20]; first compound 0.8 µM
  relative viability: 0.764
[20]; first compound 2.53 µM
  relative viability: 0.717
[20]; first compound 8 µM
  relative viability: 0.647
[21]; first compound 0.08 µM
  relative viability: 0.404
[21]; first compound 0.8 µM
  relative viability: 0.436
[21]; first compound 2.53 µM
  relative viability: 0.446
[21]; first compound 8 µM
  relative viability: 0.428
[22]; first compound 0.08 µM
  relative viability: 0.505
[22]; first compound 0.8 µM
  relative viability: 0.542
[22]; first compound 2.53 µM
  relative viability: 0.691
[22]; first compound 8 µM
  relative viability: 0.39
[23]; first compound 0.08 µM
  relative viability: 0.462
[23]; first compound 0.8 µM
  relative viability: 0.458
[23]; first compound 2.53 µM
  relative viability: 0.464
[23]; first compound 8 µM
  relative viability: 0.445
[24]; first compound 0.08 µM
  relative viability: 0.523
[24]; first compound 0.8 µM
  relative viability: 0.705
[24]; first compound 2.53 µM
  relative viability: 0.571
[24]; first compound 8 µM
  relative viability: 0.511

## CCCCCCCCCCCC1=C(O)C(=O)C=C(O)C1=O [Embelin] + CC(=O)c1c(C)c2cnc(Nc3ccc(N4CCNCC4)cn3)nc2n(C2CCCC2)c1=O [Palbociclib] (partner 0.5 µM)
[1]; first compound 0.08 µM
  relative viability: 0.599
[1]; first compound 0.8 µM
  relative viability: 0.623
[1]; first compound 2.53 µM
  relative viability: 0.65
[1]; first compound 8 µM
  relative viability: 0.563
[2]; first compound 0.08 µM
  relative viability: 0.405
[2]; first compound 0.8 µM
  relative viability: 0.448
[2]; first compound 2.53 µM
  relative viability: 0.528
[2]; first compound 8 µM
  relative viability: 0.38
[3]; first compound 0.08 µM
  relative viability: 0.35
[3]; first compound 0.8 µM
  relative viability: 0.391
[3]; first compound 2.53 µM
  relative viability: 0.49
[3]; first compound 8 µM
  relative viability: 0.453
[4]; first compound 0.08 µM
  relative viability: 0.471
[4]; first compound 0.8 µM
  relative viability: 0.411
[4]; first compound 2.53 µM
  relative viability: 0.394
[4]; first compound 8 µM
  relative viability: 0.374
[5]; first compound 0.08 µM
  relative viability: 0.483
[5]; first compound 0.8 µM
  relative viability: 0.538
[5]; first compound 2.53 µM
  relative viability: 0.331
[5]; first compound 8 µM
  relative viability: 0.553
[6]; first compound 0.08 µM
  relative viability: 0.638
[6]; first compound 0.8 µM
  relative viability: 0.624
[6]; first compound 2.53 µM
  relative viability: 0.641
[6]; first compound 8 µM
  relative viability: 0.681
[7]; first compound 0.08 µM
  relative viability: 0.303
[7]; first compound 0.8 µM
  relative viability: 0.186
[7]; first compound 2.53 µM
  relative viability: 0.246
[7]; first compound 8 µM
  relative viability: 0.214
[8]; first compound 0.08 µM
  relative viability: 1.09
[8]; first compound 0.8 µM
  relative viability: 1.21
[8]; first compound 2.53 µM
  relative viability: 1.01
[8]; first compound 8 µM
  relative viability: 0.983
[9]; first compound 0.08 µM
  relative viability: 0.518
[9]; first compound 0.8 µM
  relative viability: 0.543
[9]; first compound 2.53 µM
  relative viability: 0.571
[9]; first compound 8 µM
  relative viability: 0.511
[10]; first compound 0.08 µM
  relative viability: 0.269
[10]; first compound 0.8 µM
  relative viability: 0.324
[10]; first compound 2.53 µM
  relative viability: 0.301
[10]; first compound 8 µM
  relative viability: 0.32
[11]; first compound 0.08 µM
  relative viability: 0.433
[11]; first compound 0.8 µM
  relative viability: 0.442
[11]; first compound 2.53 µM
  relative viability: 0.535
[11]; first compound 8 µM
  relative viability: 0.516
[12]; first compound 0.08 µM
  relative viability: 0.703
[12]; first compound 0.8 µM
  relative viability: 0.757
[12]; first compound 2.53 µM
  relative viability: 0.857
[12]; first compound 8 µM
  relative viability: 0.774
[13]; first compound 0.08 µM
  relative viability: 0.601
[13]; first compound 0.8 µM
  relative viability: 0.605
[13]; first compound 2.53 µM
  relative viability: 0.783
[13]; first compound 8 µM
  relative viability: 0.586
[14]; first compound 0.08 µM
  relative viability: 0.641
[14]; first compound 0.8 µM
  relative viability: 0.674
[14]; first compound 2.53 µM
  relative viability: 0.721
[14]; first compound 8 µM
  relative viability: 0.614
[15]; first compound 0.08 µM
  relative viability: 0.347
[15]; first compound 0.8 µM
  relative viability: 0.349
[15]; first compound 2.53 µM
  relative viability: 0.392
[15]; first compound 8 µM
  relative viability: 0.346
[16]; first compound 0.08 µM
  relative viability: 0.18
[16]; first compound 0.8 µM
  relative viability: 0.236
[16]; first compound 2.53 µM
  relative viability: 0.175
[16]; first compound 8 µM
  relative viability: 0.186
[17]; first compound 0.08 µM
  relative viability: 0.824
[17]; first compound 0.8 µM
  relative viability: 0.865
[17]; first compound 2.53 µM
  relative viability: 0.68
[17]; first compound 8 µM
  relative viability: 0.834
[18]; first compound 0.08 µM
  relative viability: 0.548
[18]; first compound 0.8 µM
  relative viability: 0.597
[18]; first compound 2.53 µM
  relative viability: 0.819
[18]; first compound 8 µM
  relative viability: 0.569
[19]; first compound 0.08 µM
  relative viability: 0.405
[19]; first compound 0.8 µM
  relative viability: 0.419
[19]; first compound 2.53 µM
  relative viability: 0.385
[19]; first compound 8 µM
  relative viability: 0.364
[20]; first compound 0.08 µM
  relative viability: 0.324
[20]; first compound 0.8 µM
  relative viability: 0.347
[20]; first compound 2.53 µM
  relative viability: 0.328
[20]; first compound 8 µM
  relative viability: 0.295
[21]; first compound 0.08 µM
  relative viability: 0.346
[21]; first compound 0.8 µM
  relative viability: 0.405
[21]; first compound 2.53 µM
  relative viability: 0.381
[21]; first compound 8 µM
  relative viability: 0.306
[22]; first compound 0.08 µM
  relative viability: 0.419
[22]; first compound 0.8 µM
  relative viability: 0.41
[22]; first compound 2.53 µM
  relative viability: 0.621
[22]; first compound 8 µM
  relative viability: 0.274
[23]; first compound 0.08 µM
  relative viability: 0.435
[23]; first compound 0.8 µM
  relative viability: 0.399
[23]; first compound 2.53 µM
  relative viability: 0.405
[23]; first compound 8 µM
  relative viability: 0.439
[24]; first compound 0.08 µM
  relative viability: 0.249
[24]; first compound 0.8 µM
  relative viability: 0.232
[24]; first compound 2.53 µM
  relative viability: 0.224
[24]; first compound 8 µM
  relative viability: 0.21
